In experiment [1] the test system is HIF-1α. The experiment can be described thus: Western blot of HIF-1alpha in dental pulp stem cells. The class given is cell-based, human. The following applies: 0.5 µM, physical hypoxia. The text has this: The culture medium used was Low-Glucose DMEM supplemented with 10% fetal bovine serum. The human dental pulp mesenchymal stem line [Gronthos S, et al., "Postnatal human dental pulp stem cells (DPSCs) in vitro and in vivo" Proc Natl Acad Sci U S A, 2000 Dec 5; 97(25):13625-30.; Gronthos S et al.,." Stem cell properties of human dental pulp stem cells" J Dent Res, 2002 Aug; 81(8):531-5], obtained from human third molars from adults (19-29 years of age), was provided by the Cardioregeneration Dept. of the CIPF. The cells were seeded at a density of 2000 cells/cm^2, and when they reached a 90% confluence they were subcultured again by means of trypsinization.
The dental pulp cells were seeded at 2000 cells/cm^2 in 21 cm^2 plates. […]
On the technique in general: A western blot detects proteins with antibodies after separation by electrophoresis.

The test system of experiment [2] is HCT116/p53-/- cells. The experiment can be described thus: cell cycle distribution by flow cytometry, HCT116/p53-/-. The experiment is classed as cell-based, human. Particulars: 0.5, 1, 5, 10 µM, 3 or 6 days. The text has this:
It was investigated if the activation of DDR by FM19G11 caused a delay in the cycle progress through the G1/S phases in HCT116 tumor cells, as has been described for other DNA-damaging agents (.Lim, DS, Kim, ST, Xu, B, Maser, RS, Lin, J, Petrini, JH et al., (2000) ATM phosphorylates p95/nbs1 in an S-phase checkpoint pathway. Nature 404: 613-7.; Jazayeri, A, Falck, J, Lukas, C, Bartek, J, Smith, GC, Lukas, J et al., (2006) ATM- and cell cycle-dependent regulation of ATR in response to DNA double-strand breaks. Nat Cell Biol 8: 37-45; Liu, JS, Kuo, SR, Beerman, TA and Melendy, T, (2003) Induction of DNA damage responses by adozelesin is S phase-specific and dependent on active replication forks. Mol Cancer Ther 2: 41-7; Ranjan, P and Heintz, NH, (2006) S-phase arrest by reactive nitrogen species is bypassed by okadaic acid, an inhibitor of protein phosphatases PP1/PP2A. Free Radic Biol Med 40: 247-59.). The HCT116 p53+/+ and HCT116 p53-/- cells were exposed for 3 or 6 days to the carrier (DMSO) or to FM19G11 (0.5, 1, 5, 10 µM). […] (Figure 24).
A- The HCT116/p53+/+ cells and B-HCT116/p53-/- cells were exposed to different concentrations of FM19G11 (0.5, 1, 5, 10 µM) or carrier for 3 or 6 days to analyze the distribution of cells in the different cell cycle phases by means of flow cytometry. […]
A general note: Flow cytometry measures light scatter and fluorescence of single cells or particles in a stream.

Experiment [3] concerns HCT116/p53+/+. Put plainly: anchorage-independent growth in semisolid agar, HCT116/p53+/+. The class given is cell-based, human. The following applies: 0.5 µM, 10 days, versus DMSO, p ≤ 0.033. The method, then: Anchorage-independent cell growth is a study which allows predicting the tumorigenicity of tumor cells in vivo. Anchorage-independent cell growth studies were performed for HT29, HCT116/p53^+/+ and HCT116/p53^-/- cells in semisolid agar which were monitored daily to determine the efficiency of the formation of colonies in the presence of carrier (DMSO) or FM19G11. To that end, the starting material was 75 x 10^3 cells suspended in semisolid agar, which were maintained until 10 days later. […] A reduction of the formation of colonies in the HCT116/p53^-/- cells is not observed. The growth of colonies was quantified in three independent experiments by means of counting colonies in the 4 x magnification optical field of an inverted optical microscope.

In experiment [4] the target is T1, acetyltransferase p300 (Mus musculus, UniProt B2RWS6).
T1 construct: endogenous in cells; host or cells: C17.2 mouse neural stem cells
Put plainly: HAT Colorimetric Assay after anti-p300 immunoprecipitation, C17.2 cells. The experiment is classed as cell-based. Particulars: regardless of the percentage of oxygen. The method, then: Since FM19G11 was capable of affecting the degree of acetylation of histone H3 and therefore the conformation of chromatin, it was evaluated if FM19G11 favored the transfer of acetyl groups to histone H3 or, on the contrary, prevented histone H3 from being deacetylated. Both effects would cause an increase of the degree of acetylation of histone H3. Immunoprecipitation assays were performed with an antibody recognizing acetyltransferase p300 and then assays for measuring the acetyltransferase activity by means of using the kit "HAT Colorimetric Assay" (BioVision) were carried out. This method consists of detecting NADH since peptide acetylation causes the release of the free form of Coenzyme A, which serves as an essential coenzyme for producing NADH.
The protein extracts were previously immunoprecipitated with an anti-p300 antibody and the acetyltransferase activity measured by the detection of NADH. The evaluation of the histone deacetylase (HDAC) activity (Figure 34 B) was carried out with protein extracts of HeLa cells treated with different concentrations of FM19G11. As a positive control, a fixed concentration of TSA (1 µM) was included and extracts of untreated cells were used as a control. The experiments were carried out following the instructions of the Biomol kit for detecting histone deacetylase activity (HDAC Fluorimetric Cellular Activity Assay, Biomol, Cat. No. AK-503). […]

Each structure is given as a SMILES string.

T1 sequence (B2RWS6 whole entry): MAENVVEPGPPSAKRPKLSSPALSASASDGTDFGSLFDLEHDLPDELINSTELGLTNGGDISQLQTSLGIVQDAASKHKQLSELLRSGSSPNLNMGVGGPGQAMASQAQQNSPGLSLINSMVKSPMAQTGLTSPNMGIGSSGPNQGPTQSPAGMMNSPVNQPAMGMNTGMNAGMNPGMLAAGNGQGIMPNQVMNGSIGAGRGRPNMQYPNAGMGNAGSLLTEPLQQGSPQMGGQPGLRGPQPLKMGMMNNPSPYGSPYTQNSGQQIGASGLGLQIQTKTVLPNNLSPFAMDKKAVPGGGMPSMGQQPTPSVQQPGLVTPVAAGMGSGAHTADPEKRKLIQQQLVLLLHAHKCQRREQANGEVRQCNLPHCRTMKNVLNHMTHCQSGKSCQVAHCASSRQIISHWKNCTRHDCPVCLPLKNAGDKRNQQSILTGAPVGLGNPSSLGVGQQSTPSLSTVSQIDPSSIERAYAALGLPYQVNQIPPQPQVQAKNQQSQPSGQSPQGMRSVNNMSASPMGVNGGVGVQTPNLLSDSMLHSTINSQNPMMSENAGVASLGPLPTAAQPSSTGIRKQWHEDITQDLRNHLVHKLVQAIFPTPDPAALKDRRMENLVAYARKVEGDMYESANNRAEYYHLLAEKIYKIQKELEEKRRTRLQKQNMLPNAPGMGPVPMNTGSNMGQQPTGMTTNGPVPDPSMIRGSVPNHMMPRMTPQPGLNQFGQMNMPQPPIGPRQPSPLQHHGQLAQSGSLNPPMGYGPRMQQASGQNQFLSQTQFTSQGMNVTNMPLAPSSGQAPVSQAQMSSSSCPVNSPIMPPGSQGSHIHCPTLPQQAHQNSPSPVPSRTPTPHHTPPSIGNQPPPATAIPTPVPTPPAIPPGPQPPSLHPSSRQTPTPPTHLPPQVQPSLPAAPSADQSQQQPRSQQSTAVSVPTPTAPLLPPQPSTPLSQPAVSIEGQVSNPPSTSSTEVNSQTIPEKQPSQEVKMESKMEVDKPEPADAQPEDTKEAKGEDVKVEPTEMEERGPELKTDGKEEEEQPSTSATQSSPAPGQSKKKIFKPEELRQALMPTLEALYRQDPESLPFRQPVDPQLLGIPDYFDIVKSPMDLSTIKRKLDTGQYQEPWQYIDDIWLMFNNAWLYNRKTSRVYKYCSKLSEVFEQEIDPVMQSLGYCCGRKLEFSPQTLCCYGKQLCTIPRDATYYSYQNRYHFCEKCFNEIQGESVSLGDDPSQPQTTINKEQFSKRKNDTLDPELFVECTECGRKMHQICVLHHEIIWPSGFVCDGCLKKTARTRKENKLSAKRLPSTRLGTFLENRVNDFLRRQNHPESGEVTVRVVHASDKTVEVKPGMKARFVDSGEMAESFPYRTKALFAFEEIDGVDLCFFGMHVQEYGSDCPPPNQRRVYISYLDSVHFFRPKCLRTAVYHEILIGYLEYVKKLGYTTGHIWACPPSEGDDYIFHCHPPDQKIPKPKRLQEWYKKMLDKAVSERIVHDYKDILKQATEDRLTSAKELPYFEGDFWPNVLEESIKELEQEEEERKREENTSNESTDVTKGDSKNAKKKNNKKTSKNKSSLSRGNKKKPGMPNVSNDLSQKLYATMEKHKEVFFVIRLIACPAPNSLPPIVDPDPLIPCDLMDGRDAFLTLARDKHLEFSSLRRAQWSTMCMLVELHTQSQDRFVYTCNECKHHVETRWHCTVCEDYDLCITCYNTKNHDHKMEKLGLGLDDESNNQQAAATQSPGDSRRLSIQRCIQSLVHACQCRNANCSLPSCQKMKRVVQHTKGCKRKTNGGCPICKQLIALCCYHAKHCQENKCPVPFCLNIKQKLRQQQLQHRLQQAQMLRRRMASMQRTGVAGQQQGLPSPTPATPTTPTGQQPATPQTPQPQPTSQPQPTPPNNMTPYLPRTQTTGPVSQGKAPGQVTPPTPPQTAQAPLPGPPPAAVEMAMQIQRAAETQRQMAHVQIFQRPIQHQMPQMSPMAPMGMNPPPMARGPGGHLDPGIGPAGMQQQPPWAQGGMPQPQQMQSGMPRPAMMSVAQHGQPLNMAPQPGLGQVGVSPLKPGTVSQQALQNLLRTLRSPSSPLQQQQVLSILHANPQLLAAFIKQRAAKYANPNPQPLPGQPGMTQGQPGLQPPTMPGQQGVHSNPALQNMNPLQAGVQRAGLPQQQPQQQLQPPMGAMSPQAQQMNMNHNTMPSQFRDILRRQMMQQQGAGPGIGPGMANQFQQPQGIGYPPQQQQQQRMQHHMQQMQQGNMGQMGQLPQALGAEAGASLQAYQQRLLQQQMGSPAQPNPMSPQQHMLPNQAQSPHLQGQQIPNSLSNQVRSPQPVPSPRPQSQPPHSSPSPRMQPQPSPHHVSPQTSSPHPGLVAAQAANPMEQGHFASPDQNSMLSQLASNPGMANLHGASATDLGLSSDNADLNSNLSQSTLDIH

Consider `Cc1ccc(C(=O)COC(=O)c2cccc(NC(=O)c3ccc([N+](=O)[O-])cc3[N+](=O)[O-])c2)cc1` [FM19G11, 2-oxo-2-(p-tolyl)ethyl 3-((2,4-dinitro)benzamido)benzoate], for which the “expression of HIF-1α” value in experiment [1] is on record as “inhibited”. Also, the “G1/S phase cycle arrest” value in experiment [2] was “did not cause a G1/S phase cycle blocking”. For the same compound, the “growth of colonies in semisolid agar” value in experiment [3] was “significant decrease”. The “acetyltransferase activity of the immunoprecipitated fraction” value in experiment [4] was “increase of the acetyltransferase activity”.

The values above are taken from patent publication EP2292587A1, “PHARMACEUTICAL COMPOSITION FOR INHIBITING THE TRANSCRIPTION FACTOR INDUCIBLE BY HYPOXIA, MODULATORS OF PATHOLOGICAL PROCESSES OF ANGIOGENESIS, ONCOGENESIS, INFLAMMATION, APOPTOSIS, AND CELLULAR THERAPY” (Fundacion De La Comunidad Valenciana Centro De …, priority 2008, dated 2009).
